Experimental findings from ChEMBL document CHEMBL1201862, “PubChem BioAssay data set” (2004) are described below.

Test systems include COLO 205; TK-10; LOX IMVI; SN12C; U-251; K562; NCI-H23; SF-268; OVCAR-3; KM12; SF-295; ACHN; A498; SNB-75; UACC-62; CCRF-CEM; EKVX; RXF 393; MCF7.
Common to all, as to assay: NCI anticancer screen, dose series, 48 h

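Assay format: 96-well plates, 48-hour exposure. Abbreviation: GI50, concentration required for 50% inhibition of growth.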 Active and inactive are the calls of the source. Rule as the data show it: active = GI50 up to about 1.1 µM and inactive = higher. A value given as a limit tells only on which side of the number the result lay.

Take `Cc1ccc(NC(=O)CC2Sc3ccccc3NC2=O)cc1C` (stereo not given): the GI50 with COLO 205 is 65.2 µM (inactive); in the assay with TK-10, > 100 µM (inactive); in the assay with LOX IMVI it was 38.6 µM (inactive); in the assay with SN12C, > 100 µM (inactive); with U-251, 79.6 µM (inactive); in the assay on K562 it was 28.2 µM (inactive). In addition, the GI50 is > 100 µM (inactive) with NCI-H23; 60 µM (inactive) in the assay on SF-268; 70.8 µM (inactive) in the assay on OVCAR-3; 90.4 µM (inactive) with KM12; > 100 µM (inactive) with SF-295; 54.8 µM (inactive) in the assay on ACHN. Further, the GI50 is 37.9 µM (inactive) in the assay on A498; 39.8 µM (inactive) with SNB-75; 75.3 µM (inactive) in the assay with UACC-62; 18.7 µM (inactive) with CCRF-CEM; > 100 µM (inactive) with EKVX; 29.9 µM (inactive) with RXF 393.
For `OC(c1ccccc1)C1CC2C=CC1C2` (stereo not given), the GI50 in the assay with COLO 205, in the assay with TK-10, in the assay on LOX IMVI, with SN12C, in the assay on U-251 and with K562 was > 100 µM (inactive) each time. In addition, the GI50 in the assay on NCI-H23, with SF-268, in the assay on OVCAR-3, with KM12, in the assay with SF-295 and in the assay with ACHN was > 100 µM (inactive) throughout. In addition, the GI50 in the assay on A498, in the assay on SNB-75, with UACC-62, in the assay on CCRF-CEM, with EKVX and in the assay on RXF 393 was > 100 µM (inactive) in each case.
In the case of `CCCCCCC(C)CC(CCCCCC)NCCOC(=O)c1ccc([N+](=O)[O-])cc1` (stereo not given), the GI50 is 2.17 µM (inactive) with COLO 205; 12 µM (inactive) in the assay with TK-10; 7.4 µM (inactive) with LOX IMVI; 12.4 µM (inactive) in the assay on SN12C; 13.4 µM (inactive) in the assay on U-251; 14.1 µM (inactive) with MCF7. For the same compound, the GI50 in the assay with K562 was < 0.01 µM (active); with NCI-H23, 18 µM (inactive); with SF-268 it was 16.3 µM (inactive); with KM12, 14.1 µM (inactive); in the assay with SF-295 it was 11.7 µM (inactive); with ACHN, 15.1 µM (inactive). Further, the GI50 in the assay on SNB-75 was 14.4 µM (inactive); in the assay on UACC-62, 14.5 µM (inactive); in the assay with CCRF-CEM, 2.69 µM (inactive); in the assay on EKVX, 13.7 µM (inactive).
For the compound `O=[N+]([O-])c1ccccc1S(=O)(=O)c1ccccc1`, the GI50 with COLO 205, with TK-10, in the assay with LOX IMVI, in the assay with SN12C, with U-251 and in the assay with K562 was > 100 µM (inactive) each time. Besides, the GI50 is 89.7 µM (inactive) in the assay with NCI-H23; > 100 µM (inactive) with SF-268; > 100 µM (inactive) with OVCAR-3; > 100 µM (inactive) with KM12; > 100 µM (inactive) in the assay on SF-295; > 100 µM (inactive) in the assay with ACHN. In addition, the GI50 was > 100 µM (inactive) in the assay on A498; 23 µM (inactive) in the assay on SNB-75; 54.7 µM (inactive) in the assay on UACC-62; > 100 µM (inactive) with CCRF-CEM; > 100 µM (inactive) with EKVX; 77.8 µM (inactive) with RXF 393.
For `COc1ccccc1-c1cc(O)c2ccc(C)nc2n1`, the GI50 in the assay with COLO 205 was 54.1 µM (inactive); in the assay on TK-10 it was > 100 µM (inactive); in the assay on LOX IMVI it was > 100 µM (inactive); with SN12C it was > 100 µM (inactive); in the assay on MCF7, 47.4 µM (inactive); in the assay on K562, 58.9 µM (inactive). For the same compound, the GI50 with NCI-H23 is > 100 µM (inactive); with SF-268 it was > 100 µM (inactive); in the assay with KM12, 42.6 µM (inactive); in the assay on ACHN, > 100 µM (inactive); in the assay with A498, > 100 µM (inactive); in the assay on UACC-62 it was > 100 µM (inactive). Also, the GI50 is > 100 µM (inactive) with CCRF-CEM, 97.3 µM (inactive) with EKVX and > 100 µM (inactive) with RXF 393.
